The structures appear in SMILES notation.

Experimental findings from US11827657B2, “Boron containing pyrazole compounds, compositions comprising them, methods and uses thereof” (BOEHRINGER INGELHEIM ANIMAL HEALTH USA INC., priority 2020, dated 2023) are described below.

JAK1, sequence (P23458 whole entry, species assumed): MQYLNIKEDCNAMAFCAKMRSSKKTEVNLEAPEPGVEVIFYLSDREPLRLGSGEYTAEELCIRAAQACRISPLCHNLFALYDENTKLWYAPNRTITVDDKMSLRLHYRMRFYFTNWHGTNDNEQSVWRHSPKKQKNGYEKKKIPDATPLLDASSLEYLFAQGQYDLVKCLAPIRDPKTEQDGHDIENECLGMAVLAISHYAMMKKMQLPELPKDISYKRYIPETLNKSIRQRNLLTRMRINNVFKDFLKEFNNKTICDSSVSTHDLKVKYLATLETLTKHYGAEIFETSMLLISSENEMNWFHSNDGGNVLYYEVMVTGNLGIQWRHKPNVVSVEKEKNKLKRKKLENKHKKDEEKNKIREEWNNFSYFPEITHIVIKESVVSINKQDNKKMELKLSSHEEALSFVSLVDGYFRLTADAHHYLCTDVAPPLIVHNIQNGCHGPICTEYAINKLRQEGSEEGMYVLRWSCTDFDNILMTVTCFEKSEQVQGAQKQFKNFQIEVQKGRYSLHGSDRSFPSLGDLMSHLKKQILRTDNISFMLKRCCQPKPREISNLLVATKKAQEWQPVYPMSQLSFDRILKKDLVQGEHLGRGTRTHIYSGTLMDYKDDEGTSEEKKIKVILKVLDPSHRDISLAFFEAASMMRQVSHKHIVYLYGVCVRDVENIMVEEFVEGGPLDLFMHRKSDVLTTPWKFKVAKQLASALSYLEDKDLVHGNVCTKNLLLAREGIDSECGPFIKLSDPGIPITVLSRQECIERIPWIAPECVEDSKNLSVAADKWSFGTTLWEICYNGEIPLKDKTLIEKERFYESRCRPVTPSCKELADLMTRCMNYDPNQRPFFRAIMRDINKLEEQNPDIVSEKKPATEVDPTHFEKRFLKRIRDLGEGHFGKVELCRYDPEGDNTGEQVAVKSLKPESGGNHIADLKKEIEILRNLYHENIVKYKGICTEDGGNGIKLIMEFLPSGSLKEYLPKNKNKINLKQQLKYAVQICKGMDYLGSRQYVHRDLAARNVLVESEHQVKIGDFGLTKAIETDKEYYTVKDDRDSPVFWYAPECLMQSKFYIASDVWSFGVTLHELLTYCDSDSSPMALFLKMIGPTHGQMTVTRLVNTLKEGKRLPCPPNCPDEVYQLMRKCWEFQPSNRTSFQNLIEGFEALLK

This assay has as its target JAK1 (Homo sapiens, UniProt P23458). In words: Biochemical Kinase Assay (JAK), 33P-ATP filter-binding. The note with it: Biochemical Kinase Inhibition Assay; potency level of IC50; read-out: JAK1 (range). The essentials: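 Radiometric filter-binding with 33P-ATP in pH 7.5 Hepes buffer with 10 mM MgCl2 and 1% DMSO. Compound preincubated with kinase and substrate 20 min at room temperature, reaction run 2 h at room temperature, spotted on P81 paper to give IC50.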
On to `CC1=CB(O)Oc2ccc(Nc3nn(C4COCCC4C#N)cc3C(N)=O)cc21` (stereo not drawn) [Example 3, 1-[trans-4-cyanotetrahydro-2H-pyran-3-yl]-3-[(2-hydroxy-4-methyl-1,2-benzoxaborinin-6-yl)amino]pyrazole-4-carboxamide], for which the IC50 was below 10 nM.
For the compound `CCC1=C(CC)c2cc(Nc3nn([C@@H]4CCC[C@H]4C#N)cc3C(N)=O)ccc2OB1O` (relative stereo) [Example 40, 1-(trans-2-cyanocyclopentyl)-3-[(3,4-diethyl-2-hydroxy-1,2-benzoxaborinin-6-yl)amino]pyrazole-4-carboxamide], the IC50 lay in the range of 10 to 50 nM.
To `N#C[C@@H]1CCOC[C@H]1n1cc(C(N)=O)c(Nc2cc3c(c(OC(F)(F)F)c2)OB(O)C=C3)n1` (single isomer, unassigned) [Example 53b, 1-[trans-4-cyanotetrahydro-2H-pyran-3-yl]-3-[[2-hydroxy-8-(trifluoromethoxy)-1,2-benzoxaborinin-6-yl]amino]pyrazole-4-carboxamide] belongs below 10 nM; to `CC1=Cc2cc(Nc3nn([C@@H]4COCC[C@H]4C#N)cc3C(N)=O)ccc2OB1O` (relative stereo) [Example 5, 1-(trans-4-cyanotetrahydro-2H-pyran-3-yl)-3-((2-hydroxy-3-methyl-2H-benzo[e][1,2]oxaborinin-6-yl)amino)-1H-pyrazole-4-carboxamide], below 10 nM; to `N#C[C@@H]1CCOC[C@H]1n1cc(C(N)=O)c(Nc2ccc3c(c2)C=C(CCO)B(O)O3)n1` (relative stereo) [Example 22, 1-[trans-4-cyanooxan-3-yl]-3-{[2-hydroxy-3-(2-hydroxyethyl)-2H-1,2-benzoxaborinin-6-yl]amino}-1H-pyrazole-4-carboxamide], below 10 nM.
To `N#C[C@@H]1CCOC[C@H]1n1cc(C(N)=O)c(Nc2cc3c(c(C4CC4)c2)OB(O)C=C3)n1` (single isomer, unassigned) [Example 55b, 1-[trans-4-cyanotetrahydro-2H-pyran-3-yl]-3-[(8-cyclopropyl-2-hydroxy-1,2-benzoxaborinin-6-yl)amino]pyrazole-4-carboxamide] belongs above 50 nM; to `CC(C)C1=Cc2cc(Nc3nn(C4COCCC4C#N)cc3C(N)=O)ccc2OB1O` (stereo not drawn) [Example 48, 1-(trans-4-cyanotetrahydro-2H-pyran-3-yl)-3-((2-hydroxy-3-isopropyl-2H-benzo[e][1,2]oxaborinin-6-yl)amino)-1H-pyrazole-4-carboxamide], below 10 nM; to `N#C[C@@H]1CCOC[C@H]1n1cc(C(N)=O)c(Nc2ccc3c(c2)B(O)OC3)n1` (single isomer, unassigned) [Example 16a, 1-(trans-4-cyanotetrahydro-2H-pyran-3-yl)-3-((1-hydroxy-1,3-dihydrobenzo[c][1,2]oxaborol-6-yl)amino)-1H-pyrazole-4-carboxamide], above 50 nM.
With `N#C[C@@H]1CCOC[C@H]1n1cc(C(N)=O)c(Nc2cc3c(cc2F)OB(O)C=C3)n1` (relative stereo) [Example 29, 1-(trans-4-cyanotetrahydro-2H-pyran-3-yl)-3-[(7-fluoro-2-hydroxy-1,2-benzoxaborinin-6-yl)amino]pyrazole-4-carboxamide], the IC50 is 10 to 50 nM.
To `Cc1cc(Nc2nn([C@@H]3COCC[C@H]3C#N)cc2C(N)=O)cc2c1OB(O)C=C2` (single isomer, unassigned) [Example 27b, 1-[trans-4-cyanotetrahydropyran-3-yl]-3-[(2-hydroxy-8-methyl-1,2-benzoxaborinin-6-yl)amino]pyrazole-4-carboxamide] belongs below 10 nM.
With `Cc1cc2c(cc1Nc1nn([C@@H]3COCC[C@H]3C#N)cc1C(N)=O)C=CB(O)O2` (single isomer, unassigned) [Example 46b, 1-(trans-4-cyanotetrahydro-2H-pyran-3-yl)-3-((2-hydroxy-7-methyl-2H-benzo[e][1,2]oxaborinin-6-yl)amino)-1H-pyrazole-4-carboxamide], the IC50 was above 50 nM.
Turning to `N#CC1CCOCC1n1cc(C(N)=O)c(Nc2ccc3c(c2)B(O)OC3)n1` (stereo not drawn) [Example 16, 1-(trans-4-cyanotetrahydro-2H-pyran-3-yl)-3-((1-hydroxy-1,3-dihydrobenzo[c][1,2]oxaborol-6-yl)amino)-1H-pyrazole-4-carboxamide], the IC50 is below 10 nM.
For `CC(C)C1=Cc2cc(Nc3nn([C@@H]4COCC[C@H]4C#N)cc3C(N)=O)ccc2OB1O` (single isomer, unassigned) [Example 48b, 1-(trans-4-cyanotetrahydro-2H-pyran-3-yl)-3-((2-hydroxy-3-isopropyl-2H-benzo[e][1,2]oxaborinin-6-yl)amino)-1H-pyrazole-4-carboxamide] the value was below 10 nM; for `N#C[C@@H]1CCOC[C@H]1n1cc(C(N)=O)c(Nc2cc3c(c(C(F)(F)F)c2)OB(O)C=C3)n1` (single isomer, unassigned) [Example 28b, 1-[trans-4-cyanotetrahydro-2H-pyran-3-yl]-3-[[2-hydroxy-8-(trifluoromethyl)-1,2-benzoxaborinin-6-yl]amino]pyrazole-4-carboxamide], below 10 nM.
For `CC1(C)OB(O)c2cc(Nc3nn(C4COCCC4C#N)cc3C(N)=O)ccc21` (stereo not drawn) [Example 36, 1-[trans-4-cyanotetrahydro-2H-pyran-3-yl]-3-[(1-hydroxy-3,3-dimethyl-2,1-benzoxaborol-6-yl)amino]pyrazole-4-carboxamide] the value was below 10 nM; for `N#CC1CCOCC1n1cc(C(N)=O)c(Nc2cc(F)c3c(c2)COB3O)n1` (stereo not drawn) [Example 38, 1-[trans-4-cyanotetrahydro-2H-pyran-3-yl]-3-[(7-fluoro-1-hydroxy-3H-2,1-benzoxaborol-5-yl)amino]pyrazole-4-carboxamide], below 10 nM; for `CC1=Cc2cc(Nc3nn([C@@H]4CCCC[C@H]4C#N)cc3C(N)=O)ccc2OB1O` (relative stereo) [Example 26, 1-[trans-2-cyanocyclohexyl]-3-[(2-hydroxy-3-methyl-1,2-benzoxaborinin-6-yl)amino]pyrazole-4-carboxamide], below 10 nM.
On to `CC1=C(C)c2cc(Nc3nn([C@@H]4COCC[C@H]4C#N)cc3C(N)=O)ccc2OB1O` (relative stereo) [Example 4, 1-(trans-4-cyanotetrahydro-2H-pyran-3-yl)-3-((2-hydroxy-3,4-dimethyl-2H-benzo[e][1,2]oxaborinin-6-yl)amino)-1H-pyrazole-4-carboxamide], for which the IC50 was below 10 nM.
